Entries after “also recorded” stand apart in the source; their conditions may differ.
Legend:
[1] = test system: mouse models of acute postsurgical pain; settings: in vivo; cited from earlier work
[2] = test system: rCav1.3; test: Whole-cell patch clamp, recombinant rCav1.3 in HEK293; assay type: cell-based, rat; settings: 10 µM
Procedure: (§1) Human embryonic kidney (HEK293T) cells containing the SV40 Large T-antigen were cultured at 37°C, 5% CO2 in Dulbecco’s Modified Eagle’s Medium (DMEM, Invitrogen Life Technologies, Australia), supplemented with 10% fetal bovine serum (FBS, Bovigen, Australia), 1% GlutaMAX and penicillin-streptomycin (Invitrogen, Australia). […]
(§2) Depolarization-activated Ca^2+ currents (ICa) in transfected HEK293 cells were recorded in the whole-cell patch clamp configuration. Data were recorded using a MultiClamp 700B amplifier, digitized with a DigiData1440 and controlled using Clampex10.7 software (Molecular Devices, United States). […]
(§3) Statistical significance (p < 0.05) was determined using unpaired Student’s t-test or 1-way ANOVA followed by a Tukey multiple comparison. […]
(§4) Numerous HVA Cav channel isoforms are present in rat DRG neurons. […] We transiently co-transfected the individual Cav channel α-subunits of interest together with β3 and α2δ1 subunits in HEK293 cells and measured whole-cell I Ca currents by patch clamp. […]

[3] = test system: hCav2.3; test: Whole-cell patch clamp, recombinant hCav2.3 in HEK293; assay type: cell-based, human
Procedure: as §1, §2, §3, §4

[4] = test system: c-fibre evoked excitatory post-synaptic currents; settings: cited from earlier work
[5] = test system: mCav1.2; test: Whole-cell patch clamp, recombinant mCav1.2 in HEK293; assay type: cell-based, mouse; settings: 10 µM
Procedure: as §1, §2, §3, §4

[6] = target: hNav1.7 (Homo sapiens, UniProt Q15858); assay type: cell-based
Description: An EPC-9 patch-clamp amplifier and corresponding PULSE software from HEKA Electronik (Lambrecht/Pfalz, Germany) were used to make recordings. Currents were sampled at 50 kHz and recorded on a hard disk. Borosilicate glass from AM Systems, Everett, WA, United States were used for patch pipettes. The input resistance of the pipettes ranged from 2 to 4 MΩ. […] A built-in procedure of the HEKA amplifier compensated for the capacitive transient currents. A −P/6 protocol was utilized to subtract leak current online. I Ca was generated with the recording protocol which included a depolarization from a holding potential of −80 mV to 0 mV for 10 ms every 30 s. I Na was generated through a recording protocol which included a step depolarization from a holding potential of −80 mV to 0 mV for 10 ms at a frequency of 0.1 Hz. Cells were perfused with the test compound via a pressure driven perfusion system (AutoMate Scientific, United States).

[7] = test system: rCav2.2; test: Whole-cell patch clamp, recombinant rCav2.2 in HEK293; assay type: cell-based, rat; settings: 10 µM
Procedure: as §1, §2, §3, §4

[8] = test system: animal pain models; settings: in vivo, cited from earlier work
Description: […]. Nav channels are structurally related to voltage-gated calcium (Cav) channels, Cav1 and Cav2. […] […].

[9] = target: T1, hCav2.2 (Homo sapiens, UniProt Q00975); test: hCav2.2 steady-state inactivation (SSI); assay type: cell-based
T1 construct: expressed in transfected cells; host or cells: HEK293 (HEK293T), transient calcium phosphate co-transfection
Procedure: Human embryonic kidney (HEK293T) cells containing the SV40 Large T-antigen were cultured at 37°C, 5% CO2 in Dulbecco’s Modified Eagle’s Medium (DMEM, Invitrogen Life Technologies, Australia), supplemented with 10% fetal bovine serum (FBS, Bovigen, Australia), 1% GlutaMAX and penicillin-streptomycin (Invitrogen, Australia). HEK293 cells were then transiently co-transfected with the different voltage-gated calcium channel isoforms and green fluorescent protein (GFP) for visualization, using the calcium phosphate method. cDNAs encoding mCav1.2 (a gift from Dr. D. Lipscombe; Addgene plasmid #26572) ([Helton et al., 2005]), rCav1.3 (a gift from Dr. D. Lipscombe; Addgene plasmid # 49,333) ([Xu and Lipscombe, 2001]), hCav2.1 (a gift from Dr. J. Striessnig), rCav2.2 (a gift from Dr. D. Lipscombe), hCav2.2 (a gift from Dr. D. Yue), hCav2.3 (purchased from GenScript United States Inc.) were co-transfected with β3, α2δ1 and GFP. […]
as §2, §3

Sequence of hNav1.7 (Q15858 whole entry): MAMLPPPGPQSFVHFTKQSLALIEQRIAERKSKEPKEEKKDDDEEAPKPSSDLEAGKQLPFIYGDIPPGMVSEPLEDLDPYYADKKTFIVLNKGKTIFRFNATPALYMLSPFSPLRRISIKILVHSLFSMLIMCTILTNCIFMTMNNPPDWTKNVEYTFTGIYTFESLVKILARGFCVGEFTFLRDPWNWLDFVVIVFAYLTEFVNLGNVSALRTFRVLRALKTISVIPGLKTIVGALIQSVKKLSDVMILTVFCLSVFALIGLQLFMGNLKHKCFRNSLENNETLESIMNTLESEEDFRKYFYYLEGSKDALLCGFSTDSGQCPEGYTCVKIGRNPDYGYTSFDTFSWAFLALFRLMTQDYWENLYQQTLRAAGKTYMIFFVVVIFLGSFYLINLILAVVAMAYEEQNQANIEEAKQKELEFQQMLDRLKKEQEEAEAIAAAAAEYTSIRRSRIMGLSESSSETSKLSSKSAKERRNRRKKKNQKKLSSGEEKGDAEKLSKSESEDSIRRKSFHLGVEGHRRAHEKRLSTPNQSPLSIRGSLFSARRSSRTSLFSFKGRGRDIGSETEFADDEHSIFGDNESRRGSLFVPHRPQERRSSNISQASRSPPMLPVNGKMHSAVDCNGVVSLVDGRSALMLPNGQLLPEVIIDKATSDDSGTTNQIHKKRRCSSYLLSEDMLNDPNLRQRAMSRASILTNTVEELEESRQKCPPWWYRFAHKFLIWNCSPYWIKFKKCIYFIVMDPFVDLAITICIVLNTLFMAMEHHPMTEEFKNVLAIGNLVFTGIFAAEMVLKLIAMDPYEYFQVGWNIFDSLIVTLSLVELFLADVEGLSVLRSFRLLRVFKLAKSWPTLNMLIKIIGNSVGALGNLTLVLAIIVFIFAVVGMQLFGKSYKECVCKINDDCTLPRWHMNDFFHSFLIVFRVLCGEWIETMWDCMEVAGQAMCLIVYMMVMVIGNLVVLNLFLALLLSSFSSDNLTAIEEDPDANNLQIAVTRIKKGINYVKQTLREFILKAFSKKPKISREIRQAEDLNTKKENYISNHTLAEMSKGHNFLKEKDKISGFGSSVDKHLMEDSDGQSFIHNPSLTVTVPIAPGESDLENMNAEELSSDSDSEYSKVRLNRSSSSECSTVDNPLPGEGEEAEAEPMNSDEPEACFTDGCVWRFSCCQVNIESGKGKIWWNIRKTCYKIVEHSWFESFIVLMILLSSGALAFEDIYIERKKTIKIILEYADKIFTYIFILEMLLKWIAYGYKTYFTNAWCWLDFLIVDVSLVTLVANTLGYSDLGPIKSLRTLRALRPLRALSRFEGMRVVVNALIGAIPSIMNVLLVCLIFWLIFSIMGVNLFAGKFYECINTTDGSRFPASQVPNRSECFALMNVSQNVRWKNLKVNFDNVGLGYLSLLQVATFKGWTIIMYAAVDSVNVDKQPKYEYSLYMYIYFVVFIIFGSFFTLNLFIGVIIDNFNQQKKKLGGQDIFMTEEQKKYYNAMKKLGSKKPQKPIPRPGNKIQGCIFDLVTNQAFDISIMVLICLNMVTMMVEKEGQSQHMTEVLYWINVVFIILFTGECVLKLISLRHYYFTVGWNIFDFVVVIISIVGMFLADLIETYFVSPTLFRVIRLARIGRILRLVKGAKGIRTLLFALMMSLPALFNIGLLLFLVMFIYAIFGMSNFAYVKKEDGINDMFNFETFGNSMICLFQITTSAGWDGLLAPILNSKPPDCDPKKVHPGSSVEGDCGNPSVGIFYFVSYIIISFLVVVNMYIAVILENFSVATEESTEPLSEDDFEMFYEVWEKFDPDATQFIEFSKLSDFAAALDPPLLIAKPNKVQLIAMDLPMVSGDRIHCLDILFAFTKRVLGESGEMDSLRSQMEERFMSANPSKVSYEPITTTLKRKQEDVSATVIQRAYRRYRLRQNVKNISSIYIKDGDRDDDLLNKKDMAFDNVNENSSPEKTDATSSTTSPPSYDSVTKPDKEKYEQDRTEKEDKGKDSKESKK

## CSCC[C@@H]1NC(=O)[C@H](Cc2ccc(O)cc2)NC(=O)[C@H](CCCNC(=N)N)NC(=O)[C@@H](NC(=O)[C@@H](N)CC(=O)O)CSSC[C@@H]2NC(=O)[C@@H]3CSSC[C@@H](C(=O)N[C@@H](C)C(=O)N[C@@H](Cc4c[nH]c5ccccc45)C(=O)N[C@@H](CC(=O)O)C(=O)N[C@@H](Cc4ccccc4)C(=O)N[C@H](C(=O)N[C@@H](Cc4ccccc4)C(=O)N[C@H](C(=O)O)[C@@H](C)O)[C@@H](C)O)NC(=O)[C@H](Cc4ccc(O)cc4)NC(=O)[C@H](CCCCN)NC(=O)[C@H](CCSC)NC(=O)[C@H](CCCCN)NC(=O)[C@H](CCCNC(=N)N)NC(=O)[C@H](CCCCN)NC(=O)[C@H](CSSC[C@H](NC(=O)[C@H](CC(=O)O)NC(=O)CNC(=O)[C@H](Cc4ccccc4)NC1=O)C(=O)N[C@@H](CCC(=O)O)C(=O)N[C@@H](CCCCN)C(=O)N[C@@H](CC(=O)O)C(=O)N[C@@H](CCC(=O)O)C(=O)N[C@@H](CC(=O)O)C(=O)N3)NC(=O)CNC(=O)[C@H](CC(C)C)NC(=O)[C@H](Cc1c[nH]cn1)NC(=O)[C@H](CCCCN)NC2=O [Pn3a, µ-Theraphotoxin-Pn3a]
[1]
  antinociceptive behavior in acute postsurgical pain (in words): causes antinociceptive behavior
[2]
  inhibition of Cav1.3-mediated current: 65.6 ± 1.8%
[3]
  effect on Cav2.3-mediated current (in words): no inhibition; also recorded: negligible effects; also recorded: minimally affected
[3]; 10 µM
  inhibition of Cav2.3-mediated current: 2.2 ± 0.9%
[4]
  effect on c-fibre evoked excitatory post-synaptic currents (in words): reduce c-fibre evoked excitatory post-synaptic currents
[5]
  inhibition of Cav1.2-mediated current: 70.3 ± 1.5%
[6]
  concentration at which inhibition is reliably distinguished from current rundown: > 10 nM
  difference in hNav1.7 potency from reported value: ~30 fold
  reversibility of hNav1.7 inhibition: virtually irreversible at higher concentrations
[7]
  inhibition of rat Cav2.2-mediated current: 69.5 ± 1.0%
[8]; 1 mg/kg
  analgesia/anti-allodynia on co-administration with opioids (in words): significant analgesia/anti-allodynia
[8]
  analgesia in various animal pain models (in words): fails to produce analgesia
  effect in rodent models of acute nociception or inflammatory pain (in words): ineffective
[9]
  V0.5 of steady-state inactivation: −69.8 ± 0.3 mV
  slope factor ka of steady-state inactivation: 10.5 ± 0.3
